How the values were obtained:
[1] = system: Plasma; test: Haemostatic activity in human plasma assessed as change in rate of activated partial thromboplastin time at 5 uM after 3 mins relative to control; type: functional
[2] = system: Plasma; test: Haemostatic activity in human plasma assessed as change in rate of prothrombin time at 5 uM after 3 mins by thromboplastic agent based assay relative to control; type: functional
[3] = system: Plasma; test: Haemostatic activity in human plasma assessed as change in rate of thrombin time at 100 uM after 3 mins by thrombin agent based assay relative to control; type: functional
[4] = Thermal stability of the compound at 150 degC by thermogravimetric assay; type: physicochemical
[5] = system: Plasma; test: Haemostatic activity in human plasma assessed as change in rate of thrombin time at 50 uM after 3 mins by thrombin agent based assay relative to control; type: functional
[6] = system: Plasma; test: Haemostatic activity in human plasma assessed as change in rate of thrombin time at 10 uM after 3 mins by thrombin agent based assay relative to control; type: functional
[7] = system: Plasma; test: Haemostatic activity in human plasma assessed as change in rate of thrombin time at 1 uM after 3 mins by thrombin agent based assay relative to control; type: functional
[8] = system: Plasma; test: Haemostatic activity in human plasma assessed as change in rate of prothrombin time at 1 uM after 3 mins by thromboplastic agent based assay relative to control; type: functional
[9] = system: Plasma; test: Haemostatic activity in human plasma assessed as change in rate of thrombin time at 5 uM after 3 mins by thrombin agent based assay relative to control; type: functional
[10] = system: Plasma; test: Haemostatic activity in human plasma assessed as change in rate of prothrombin time at 50 uM after 3 mins by thromboplastic agent based assay relative to control; type: functional
[11] = system: Plasma; test: Haemostatic activity in human plasma assessed as change in rate of activated partial thromboplastin time at 1 uM after 3 mins relative to control; type: functional
[12] = system: Plasma; test: Haemostatic activity in human plasma assessed as change in rate of prothrombin time at 10 uM after 3 mins by thromboplastic agent based assay relative to control; type: functional
[13] = system: Plasma; test: Haemostatic activity in human plasma assessed as change in rate of activated partial thromboplastin time at 10 uM after 3 mins relative to control; type: functional
[14] = system: Plasma; test: Haemostatic activity in human plasma assessed as change in rate of activated partial thromboplastin time at 50 uM after 3 mins relative to control; type: functional
[15] = system: Plasma; test: Haemostatic activity in human plasma assessed as change in rate of activated partial thromboplastin time at 100 uM after 3 mins relative to control; type: functional
[16] = system: Plasma; test: Inhibition of ADP-induced platelet aggregation in human plasma; type: functional
[17] = system: Plasma; test: Haemostatic activity in human plasma assessed as change in rate of prothrombin time at 100 uM after 3 mins by thromboplastic agent based assay relative to control; type: functional

Row | Compound | Activity [1] | Activity [2] | Activity [3] | Stability [4] | Activity [5] | Activity [6] | Activity [7] | Activity [8] | Activity [9] | Activity [10] | Activity [11] | Activity [12] | Activity [13] | Activity [14] | Activity [15] | IC50 [16] | Activity [17]
1 | O=C(CCc1ccccc1)Nc1nccs1 | -2.42% | -2.44% | -7.93% | Stable | -7.02% | -5.33% | -3.15% | -0.56% | -4.6% | -2.81% | 1% | -3.19% | -1.85% | -1.56% | 0.28% | 45.1 µM | 0%
2 | COc1ccc(/C=C/C(=O)Nc2nccs2)cc1OC | -6.47% | 0.28% | -14.62% | Stable | -23.82% | -22.41% | -14.62% | -1.7% | -16.04% | -1.49% | -0.14% | -0.22% | -1.41% | -0.56% | 1.97% | 54.5 µM | -2.99%
3 | COc1cc(/C=C/C(=O)Nc2nccs2)cc(OC)c1OC | 1.55% | -0.95% | -50.24% | Stable | -21.7% | -10.14% | -29.01% | 0.56% | -22.17% | 0.55% | 0.56% | 3.22% | 2.25% | 1.96% | 1.69% | 18.1 µM | 2.55%
4 | COc1ccc(/C=C/C(=O)Nc2nccs2)cc1 | -2.7% | -2.27% | -16.95% | Stable | -13.8% | -8.23% | -6.54% | -1.51% | -7.51% | -0.75% | -1.28% | 0% | 0.14% | 0.28% | -0.71% | 73.7 µM | -6.75%
5 | CC(=O)Oc1ccc(/C=C/C(=O)Nc2nccs2)cc1 | -3.1% | -4.4% | -6.39% | Stable | -21.15% | -22.03% | -11.45% | -3.2% | -14.54% | -4.3% | -1.68% | -5.29% | -3.88% | -2.71% | -2.45% | 58.1 µM | 1.2%
6 | COc1cc(/C=C/C(=O)Nc2nccs2)ccc1OC(C)=O | -2.57% | -2.24% | -11.06% | Stable | -12.35% | -13.06% | -5.76% | -1.98% | -7.88% | -5.77% | -1.14% | -4.39% | -3.42% | -6.28% | -1.85% | 25.5 µM | -7.32%
7 | O=C(/C=C/c1ccccc1)Nc1nccs1 | -5.81% | -7.09% | -9.69% | Stable | -13.66% | -11.23% | -7.93% | -5.69% | -10.79% | -4.4% | -4.78% | -5.59% | -9.95% | -6.72% | -2.71% | 36.6 µM | -3.7%
8 | CC(=O)Oc1ccccc1/C=C/C(=O)Nc1nccs1 | -9.51% | -3.25% | -21.88% | Stable | -26.2% | -21.39% | -2.4% | -1.68% | -13.46% | -2.2% | -5.55% | -4.62% | -8.61% | -8.15% | -6.12% | 1.87 µM | -1.78%
9 | CC(=O)Oc1cccc(/C=C/C(=O)Nc2nccs2)c1 | -6.57% | -1.05% | -21.64% | Stable | -19.95% | -15.39% | -5.05% | -0.1% | -7.21% | -0.42% | -4.64% | -0.73% | -10.19% | -9.06% | -8.61% | 35.5 µM | -0.84%
10 | CC(=O)Oc1ccc(/C=C/C(=O)Nc2nccs2)cc1OC(C)=O | -6% | -4.09% | -15.63% | Stable | -27.89% | -28.13% | -13.94% | -4.3% | -30.77% | -1.68% | -2.94% | -1.36% | -2.94% | -2.04% | 0% | 75.6 µM | -3.88%
11 | Nc1nccs1 [AMINOTHIAZOLE] | -2% | -4.91% | -3.53% |  | -5.41% | -6.47% | -3.53% | -6.63% | -5.06% | -5.17% | -3.71% | -2.84% | -0.43% | 0% | 2.53% | 202 µM | -5.43%
12 | O=S(=O)(O)c1cc(O)ccc1O [ETHAMSYLATE] |  |  |  |  |  |  |  |  |  |  |  |  |  |  |  | 46.2 µM | 

Reference: ChEMBL document CHEMBL4177571, “Synthesis and biological evaluation of a new series of cinnamic acid amide derivatives as potent haemostatic agents containing a 2-aminothiazole substructure” (Bioorg Med Chem Lett, 2017)
